Assay results published in patent publication US20170095505A1, “COMBINATION OF XENON AND AN ANTIOXIDANT TO CONTROL A PARKINSON'S DISEASE-TYPE NEURODEGENERATIVE DISEASE” (L'Air Liquide, Société Anonyme pour I'Etude et …, priority 2014, published 2017).

Test system: TH-positive (dopaminergic) neurons of mesencephalon cultures
Test: Survival of TH-positive dopaminergic neurons in rat mesencephalon primary cultures, degeneration by chronic treatment with PDC, under controlled gaseous atmosphere
Assay type: cell-based
Design: key to Survival of TH-positive neurons: a favorable response, synonymous with a decrease in the level of neuronal cell death in the presence of the treatments of interest, is denoted by a “+”, “++”, or “+++” sign (+++ = level of reference); a favorable response, synonymous with a decrease in the level of neuronal cell death in the presence of the treatments of interest, is denoted by a “+”, “++”, or “+++” sign; a favorable response, synonymous with a decrease in the level of neuronal cell death in the presence of the treatments of interest, is denoted by a “+”, “++”, or “+++” sign; an unfavorable response is represented by a “−” sign, synonymous with an increase in the neuronal death
Details: for Survival of TH-positive neurons: D13-D16, analyzed D16; for survival rate of dopaminergic neuronal cells: % of cultures not treated with PDC under 75% nitrogen
Description: Cultures are prepared from mesencephalon of rat embryos, taken from gestating female Wistar rats on day 15.5 of gestation. The method for obtaining the mesencephalon cultures comprises obtaining a homogeneous cell suspension via mechanical dissociation, i.e. non-enzymatic dissociation, of the embryonic tissue, using Leibovitz L15 medium (Sigma Aldrich). Aliquots of this suspension are added to Nunc 48-well plates, which were precoated with a thin layer of polyethyleneimine (1 mg/ml, borate buffer, pH 8.3) so as to enable the adhesion of the neuronal cells (cf. Toulorge et al., Faseb J, 2011). The seeding density is between approximately 80 000 and 100 000 cells/cm^2. The mesencephalon cultures are maintained in neurobasal culture medium, containing a B27 cocktail without antioxidant, N2 supplement, glutamine (2 mM) and a penicillin/streptomycin cocktail ([…] al., J Neurochem, 2008). The medium and supplements thereof are available from Life Technologies. Up to the time when the effects of the gases of interest are evaluated, the cultures are placed in a conventional enclosure thermostatically controlled at 37° C., in which the CO2 is maintained at 5% by volume and wherein the atmosphere is saturated with water. No change of culture medium is carried out throughout the culture period. Pharmacological Treatments of the Cultures p The degenerative process is triggered by applying a glutamate reuptake system blocker, L-trans-pyrrolidine-2,4-dicarboxylic acid or PDC (Zuiderwijk et al., Europ J Pharmacol, 1994). The antioxidant, namely Trolox, is added to the cultures before the application of PDC. Once the pharmacological treatments have been carried out, the multiwell plates containing the cells in culture and the plate used to humidify the internal compartment of the chamber are placed on a metal base which receives the Plexiglas incubation chamber. The two parts (base and Plexiglas chamber) are butt-joined together by screwing. A gas mixture of interest comprising (% by volume): 20% of O2, 5% of CO2 and 75% of the gas tested is then injected into the incubation chamber, with open inlet and outlet valves, while at the same time controlling the output flow rate by means of a flow meter. The gases tested are nitrogen and xenon. The reference output flow rate, set for air at 10 liters/min, is corrected according to the density of the mixture used. When the CO2 measurement reaches 5% at the outlet, the injection of the gas mixture is stopped and the chamber is made totally airtight by closing the inlet and outlet valves. The exposure chamber is then placed in an enclosure at 37° C. throughout the experimental protocol. After breaking the […] by opening the inlet and outlet valves and unscrewing the chamber from its base, the cultures are fixed with 4% formaldehyde in PBS for 12 min and then incubated at 4° C. with an anti-TH monoclonal antibody (dilution 1/5000) for 2 days. […] The image acquisition is carried out with an infrared imager of Odyssey type (Li-COR Biosciences) and the quantification of the neurons is carried out by means of the ICY software (Institut Pasteur). The results recorded on the figure appended hereto illustrate the synergistic protective effects of xenon and of Trolox in a cell model mimicking chronic Parkinsonian degeneration. […] The cultures are then recovered for fixing and analysis. The neuronal survival is quantified under the various experimental conditions tested, by counting the number of cell bodies immunopositive for the dopaminergic marker TH. The results are expressed in % (±SEM) of the mean values of the cultures not treated with PDC, maintained under 75% of nitrogen (control condition).

## O=C(O)[C@H]1CN[C@H](C(=O)O)C1 (relative stereo) [PDC, L-trans-pyrrolidine-2,4-dicarboxylic acid]
PDC 100 μM, 20% O2 + 5% CO2 + 75% N2
  Survival of TH-positive neurons: −
PDC 100 μM, atmosphere containing 75 vol % nitrogen
  survival rate of dopaminergic neuronal cells: 25.4%

## Cc1c(C)c2c(c(C)c1O)CCC(C)(C(=O)O)O2 (stereo not drawn) [Trolox, 6-hydroxy-2,5,7,8-tetramethylchromane-2-carboxylic acid]
PDC 100 μM + Trolox 0.1 μM, 75% N2
  Survival of TH-positive neurons: −
PDC 100 μM + Trolox 0.3 μM, 75% N2
  Survival of TH-positive neurons: −
PDC 100 μM + Trolox 1 μM, 75% N2
  Survival of TH-positive neurons: +
PDC 100 μM + Trolox 10 μM, 75% N2
  Survival of TH-positive neurons: ++
PDC 100 μM, 75% nitrogen, p<0.05 vs cultures exposed only to PDC in the same atmosphere
  Trolox concentration from which a significant protective effect is produced: ≥ 1 µM
PDC 100 μM, Trolox 0.1-0.3 μM, atmosphere containing 75% nitrogen
  effect of Trolox applied alone on neuronal survival: no significant effect

## [Xe] [Xe, xenon]
PDC 100 μM, 20% O2 + 5% CO2 + 75% Xe
  Survival of TH-positive neurons: ++
PDC 100 μM, Trolox present or absent, p<0.05 vs corresponding cultures under 75% nitrogen
  survival of dopaminergic neurons treated with PDC, 75% xenon compared with 75% nitrogen: increase in the survival
PDC 100 μM, nitrogen replaced with xenon (75%)
  survival rate of dopaminergic neuronal cells: 57.7%
No PDC (Control group II), 20% O2 + 5% CO2 + 75% Xe
  Survival of TH-positive neurons: +++
